Experiments:
MOLM-13 (FLT3-ITD/wt) = assay: Cell proliferation assay (CellTiter-Glo); assay type: cell-based, human
Method: (§1) The human AML cell lines MV4-11, U937, OCI-AML-3 were purchased from the American Type Culture Collection (ATCC) (Manassas, VA, USA). The FLT3-ITD-expressing lines, MOLM-13, MOLM-14, were provided by Dr. Scott Armstrong, Dana Farber Cancer Institute (DFCI), Boston, MA. The wt FLT3-expressing AML line, NB4 (KRAS A18D), was obtained from Dr. Gary Gilliland. […] MV4-11 was cultured in IDMEM media (Corning, USA) with 10% FBS and supplemented with 2% L-glutamine and 1% penicillin/streptomycin. OCI-AML-3 was cultured in α-MEM media (Corning, USA) with 10% FBS and supplemented with 2% L-glutamine and 1% penicillin/streptomycin. All cell lines were maintained in culture media at 37°C with 5% CO2.
(§2) Cells were grown in 96-well culture plates (3000/well). […] Cell proliferation was determined after 72 hours drug treatment. […] Cell viability was measured with the CellTiter–Glo assay (Promega, USA), according to the manufacturer's instructions, and luminescence was measured in a multi-label reader (Envision, PerkinElmer, USA). […] GI50 values were calculated using Prism 5.0 (GraphPad Software, San Diego, CA).

MOLM-14 (FLT3-ITD/wt) = assay: Cell proliferation assay (CellTiter-Glo); assay type: cell-based, human
Method: as §1, §2

MV4-11 (FLT3-ITD) = assay: Cell proliferation assay (CellTiter-Glo); assay type: cell-based, human
Method: as §1, §2

NB4 (FLT3-wt) = assay: Cell proliferation assay (CellTiter-Glo); assay type: cell-based, human; details: 72 hours
Method: as §1, §2

OCI-AML-3 (FLT3-wt) = assay: Cell proliferation assay (CellTiter-Glo); assay type: cell-based, human; details: 72 hours
Method: as §1, §2

U937 (FLT3-wt) = assay: Cell proliferation assay (CellTiter-Glo); assay type: cell-based, human; details: 72 hours
Method: as §1, §2

HL-60 (FLT3-wt) = assay: Cell proliferation assay (CellTiter-Glo); assay type: cell-based, human; details: 72 hours
Method: as §2

SKM-1 (FLT3-wt) = assay: Cell proliferation assay (CellTiter-Glo); assay type: cell-based, human; details: 72 hours
Method: as §2

BaF3-FLT3-D835Y = assay: Anti-proliferation, BaF3 isogenic cell lines; assay type: cell-based
Method: (§3) Cells were grown in 96-well culture plates (3000/well). […] Cell proliferation was determined after 72 hours drug treatment. […] Cell viability was measured with the CellTiter–Glo assay (Promega, USA), according to the manufacturer's instructions, and luminescence was measured in a multi-label reader (Envision, PerkinElmer, USA). Data were normalized to control groups (DMSO) and represented by the mean of three independent measurements with standard error < 20%. GI50 values were calculated using Prism 5.0 (GraphPad Software, San Diego, CA).
(§4) Retroviral constructs for BaF3-FLT3 mutants were made based on the pMSCVpuro (Clontech) backbone. For TEL-FLT3 vector, the first 1 kb of human TEL gene with an artificial myristoylation sequence ([…]) was cloned into pMSCVpuro retroviral vector, followed by a 3xFLAG tag sequence and a stop codon. Then the kinase domain coding sequence of FLT3 was inserted in-frame between TEL and 3× FLAG sequences. For full-length expression vectors, the coding sequences of FLT3 variants were directly cloned in pMSCVpuro vector with a 3X FLAG tag at the C-terminal end. All mutagenesis studies were performed using the QuikChange Site-Directed Mutagenesis Kit (Stratagene) following the manufacturer's instructions. Retrovirus was packaged in HEK293T cells by transfecting FLT3-containing MSCV vectors together with two helper plasmids, virus supernatants were harvested 48 hours after transfection and filtered before infection. Then BaF3 cells were infected with harvested virus supernatants using spinoculation protocol and stable cell lines were obtained by puromycin selection for 48 hours. The IL-3 concentrations in the culture medium were gradually withdrawn until cells were able to grow in the absence of IL-3.

BaF3-FLT3-ITD-D835Y = assay: Anti-proliferation, BaF3 isogenic cell lines; assay type: cell-based
Method: as §3, §4

BaF3-FLT3-ITD-F691L = assay: Anti-proliferation, BaF3 isogenic cell lines; assay type: cell-based
Method: as §3, §4

BaF3-FLT3-ITD = assay: Anti-proliferation, BaF3 isogenic cell lines; assay type: cell-based
Method: as §3, §4

BaF3-TEL-FLT3-wt = assay: Anti-proliferation, BaF3 isogenic cell lines; assay type: cell-based
Method: as §3, §4

HL-60 = assay: Colony formation (clonogenic) assay; assay type: cell-based, human; details: HL-60, 15 days
Method: (§5) In brief, 1 mL of 3% agarose combined with 1 mL MOLM-13, MOLM-14, MV4-11, PF-382, U937, HL-60 growth media was used as the bottom agar in a 6-well plate. […] Cells were maintained in a humidified 5% CO2 incubator at 37°C for 15 days. On the 15th day, the numbers of colonies in each well were counted and each measurement was performed in triplicate.

MOLM13 = assay: Colony formation (clonogenic) assay; assay type: cell-based, human; details: MOLM13, 15 days
Method: as §5

MOLM14 [1] = assay: Colony formation (clonogenic) assay; assay type: cell-based, human; details: MOLM14, 15 days
Method: as §5

MV4-11 = assay: Colony formation (clonogenic) assay; assay type: cell-based, human; details: MV4-11, 15 days
Method: as §5

PF382 = assay: Colony formation (clonogenic) assay; assay type: cell-based, human; details: PF382, 15 days
Method: as §5

U937 = assay: Colony formation (clonogenic) assay; assay type: cell-based, human; details: U937, 15 days
Method: as §5

MOLM14 [2] = assay: Cell cycle analysis (PI, flow cytometry); assay type: cell-based, human; details: 24 hours
Method: The cells were fixed in 70% cold ethanol and incubated at −20°C overnight, then stained with PI/RNase staining buffer (BD Pharmingen). Flow cytometry was performed using a FACS Calibur (BD), and results were analyzed by ModFit software.

FLT3 wt = biological target: FLT3 wt; design: method as in PMID 22037378; details: cited from earlier work

GI50 (MOLM-13 (FLT3-ITD/wt); MOLM-13 (FLT3-ITD/wt), 72 hours, Table 1): 60 nM
GI50 (MOLM-13 (FLT3-ITD/wt); MOLM-13+FL(1 ng/mL)): 61 nM
GI50 (MOLM-13 (FLT3-ITD/wt); MOLM-13+FL(5 ng/mL)): 58 nM
GI50 (MOLM-13 (FLT3-ITD/wt); MOLM-13+FL(10 ng/mL)): 59 nM
GI50 (MOLM-13 (FLT3-ITD/wt); MOLM-13, no FLT3 ligand, Table 3): 60 nM
GI50 (MOLM-14 (FLT3-ITD/wt); MOLM-14 (FLT3-ITD/wt), 72 hours, Table 1): 180 nM
GI50 (MOLM-14 (FLT3-ITD/wt); MOLM-14+FL(1 ng/mL)): 210 nM
GI50 (MOLM-14 (FLT3-ITD/wt); MOLM-14+FL(5 ng/mL)): 190 nM
GI50 (MOLM-14 (FLT3-ITD/wt); MOLM-14+FL(10 ng/mL)): 180 nM
GI50 (MOLM-14 (FLT3-ITD/wt); MOLM-14, no FLT3 ligand, Table 3): 180 nM
GI50 (MV4-11 (FLT3-ITD); MV4-11 (FLT3-ITD), 72 hours, Table 1): 75 nM
GI50 (MV4-11 (FLT3-ITD); MV4-11+FL(10 ng/mL)): 78 nM
GI50 (MV4-11 (FLT3-ITD); MV4-11, no FLT3 ligand, Table 3): 75 nM
GI50 (OCI-AML-3 (FLT3-wt)): 670 nM
GI50 (U937 (FLT3-wt)): 520 nM
GI50 (HL-60 (FLT3-wt)): 2600 nM
GI50 (SKM-1 (FLT3-wt)): 2000 nM
GI50 (BaF3-FLT3-D835Y): 45 nM
GI50 (BaF3-FLT3-ITD-D835Y): 420 nM
GI50 (BaF3-FLT3-ITD-F691L): 430 nM
GI50 (BaF3-FLT3-ITD): 88 nM
GI50 (BaF3-TEL-FLT3-wt): 1000 nM
EC50 (HL-60): 387 nM
EC50 (MOLM13): 170 nM
EC50 (MOLM14 [1]): 61 nM
EC50 (MV4-11): 92 nM
EC50 (PF382): 861 nM
EC50 (U937): 505 nM
SMILES: Cc1[nH]nc2ccc(-c3cncc(OC[C@@H](N)Cc4ccccc4)c3)cc12 [A674563]
GI50 (NB4 (FLT3-wt)): 480 nM
%G0–G1 (MOLM14 [2]; MOLM14, 0.3 μM): 47.08%
%G2–M (MOLM14 [2]; MOLM14, 0.3 μM): 11.27%
%S (MOLM14 [2]; MOLM14, 0.3 μM): 41.65%
%G0–G1 (MOLM14 [2]; MOLM14, 3 μM): 53.87%
%G2–M (MOLM14 [2]; MOLM14, 3 μM): 22.65%
%S (MOLM14 [2]; MOLM14, 3 μM): 23.49%
Kd (FLT3 wt): 540 nM

Source: article PMC5045383 (Oncotarget, 2016)
